Measurements taken from patent US10766908B2, “Calcium L-lactate frameworks as naturally degradable carriers” (priority 2017, dated 2020).

Assay: Slow release of cis-1,3-dichloropropene under air flow, sample weight monitored by thermogravimetric instrument
Format: physicochemical
Conditions: air flow of 1.0 cm^3 min^−1, 25° C.
Experimental: Here we present the use of MOF-1201 for this purpose Fumigant cis-1,3-dichloropropene has been chosen as an example. Static adsorption isotherm of cis-1,3-dichloropropene in MOF-1201 at 25° C. is shown in FIG. 3c, displaying a sharp uptake of 1.4 mmol g^−1 (13 wt %) in low partial pressure range (P/P0=0.1), attributed to adsorption within the micropores. […] In contrast, the cis-1,3-dichloropropene encapsulated in MOF-1201 released in a much slower manner, with 80% of the total (10.5 wt %) released in 100,000 min g^−1, corresponding to 100 times slower compared with liquid cis-1,3-dichloropropene under the same conditions.
Slow release experiments were carried out using the TA Q500 thermal analysis system under constant air flow rate of 1 cm^3 min ^−1.

Cl/C=C\CCl [liquid cis-1,3-dichloropropene, cis-1,3-dichloropropene]
time for 80% of the total weight to be released/evaporated: ≤ 1,000 min g^−1
